Test results published in patent US9616056B2, “Inhibition of leukotriene synthesis and activity in the treatment of sonic hedgehog-associated medulloblastoma” (Institute for Cancer Research, priority 2013, dated 2017).
Entries after “also recorded” stand apart in the source; their conditions may differ.

Legend:
[1] = system: tumor cells isolated from Math1-Cre/Ptch1^C/C animals (MB cells); assay: Nestin expression in cultured medulloblastoma tumor cells (immunostaining); format: cell-based, mouse
Procedure: (§1) GNPs isolated from Ptch1^C/C animals were plated and infected with lentivirus carrying Cre recombinase to delete Ptch1. At 48 hrs following the infection, GNPs were stained for Cre (green) and Nestin (red) in control (Panel A) and in the presence of 20 ng/ml leukotriene (Panel B). MB cells were plated in vitro for 48 hrs, and stained for Nestin (red) in control (Panel C) and in the presence of 5 μM MK886. (Panel D).
Tumor cells isolated from Math1-Cre/Ptch1^C/C animals, were treated with 3 μM DMSO (Panels A and B) or MK886 (Panels C and D) in vitro. After 48 hrs treatment, tumor cells were harvested for immunostaining with antibodies against Nestin (red) and Ki67 (green) (Panels B and D). The same cultures were counterstained by DAPI (blue) to show the total cell number (Panels A and B).
To further examine whether Leukotriene synthesis is required for Nestin expression in tumor cells, tumor cells were isolated from the mouse model, which has already highly expresses Nestin in vivo, even in the culture at 48 hrs following plating.
It was next investigated whether leukotriene inhibition can prevent tumor cell proliferation. […] At 48 hrs after treatment, tumor cells were analyzed for proliferation by immunostaining for Ki67. […]

[2] = system: tumor cells isolated from Math1-Cre/Ptch1^C/C animals (MB cells); assay: Tumor cell proliferation in vitro by Ki67 immunostaining; format: cell-based, mouse; conditions: 48 hrs treatment, 3 μM, vs DMSO (FIG. 5)
Procedure: 48 hrs later, the percentage of proliferating cells was calculated after immunostaining the culture with antibody against Ki67.
Tumor cells isolated from the mouse model were treated with MK886 or DMSO as a control. At 48 hrs after treatment, tumor cells were analyzed for proliferation by immunostaining for Ki67.
DMSO was used as a negative control.

[3] = system: medulloblastoma in Math1-Cre/Ptch1^C/C animals; assay: In vivo tumor growth in tumor bearing Math1-Cre/Ptch1^C/C animals; parameters: species or system mouse
Procedure: Tumor bearing animals were treated with MK886 or DMSO by IP injection. After 1 month treatment, tumors were harvested. Tumor size was reduced by 30% with the treatment of MK886 (Panel A). After the treatment, tumors were sectioned for immunostaining for Nestin (Panels B and D), and Ki67 (Panels C and E). In the control (Panels B and C), tumor cells extensively express Nestin (Panel B) and all the tumor cells were Ki67 positive (Panel C).
Next, the efficacy of MK886 in inhibiting in vivo tumor growth was evaluated. Math1-Cre/Ptch1^C/C animals at postnatal day 21 were treated daily with 30 μg MK886 by intraperitoneal injection. Three weeks later, tumor volume was evaluated by MRI imaging.
Nestin expression and Ki67 was compared in tumor sections by immunohistochemical analysis.

[4] = system: GBM cell lines T98G, U-87MG and U251; assay: GBM cell viability by Alamar blue assay; format: cell-based; conditions: various concentrations, 48 hrs (FIG. 8)
Procedure: Three GBM cell lines (T98G, U87-MG and U251) were plated and treated with MK886 and Montelukast at various concentrations for 48 hrs. Cell viability was measured by Alamar blue assay. Data represent the average of triplicate+SD. *p<0.05
To test the efficacy of leukotriene inhibitors in preventing glioblastoma cell proliferation, three GBM cell lines: T98G, U-87MG and U251 (purchased from an in-house cell culture facility) were utilized. The cell lines were treated with MK886 and Montelukast at different concentrations. After treatment for 48 hrs, cell survival and growth was analyzed by Alamar blue assay (Al-Nasiry, S et al. (2007) Hum. Reprod. 22:1304-9).

[5] = system: Ptch1-deficient GNPs; assay: Induction of Nestin expression in Ptch1-deficient GNPs (immunocytochemistry); format: cell-based, mouse; conditions: 20 ng/ml leukotriene, 48 hrs after Cre lentivirus infection
Procedure: as §1
Since Nestin is a cytoskeleton protein, it was examined whether leukotriene could induce Nestin expression in medulloblastoma cells. For this purpose, cerebellar GNPs were isolated from Ptch1^C/C animals, and Patched1 (Ptch1) was deleted from GNPs by using a lentivirus with Cre recombinase. At 48 hrs following the infection, cells were harvested to analyze Nestin expression by immunocytochemistry. […] The presence of Nestin mRNA and protein has been confirmed by RT-PCR and western blotting (data not shown).

Molecule | Nestin expression in tumor cells ([1]; 48 hrs treatment, 3 μM, vs DMSO (FIG. 5)) | Nestin expression among tumor cells ([1]; MB cells plated in vitro 48 hrs, 5 μM MK886 (FIG. 4)) | proliferation among tumor cells (Ki67) [2] | decrease of tumor size in volume (MRI imaging) ([3]; 30 μg MK886 daily intraperitoneal from postnatal day 21, three weeks, vs DMSO) | tumor size reduction ([3]; IP injection, after 1 month treatment, tumors harvested (FIG. 7 Panel A)) [%] | Nestin expression in tumor sections after treatment ([3]; immunostaining of tumor sections after MK886 treatment vs DMSO) | number of Ki67 positive cells in tumor ([3]; tumor sections after MK886 treatment compared with control) | tumor cells still positive for Ki67 ([3]; tumor sections after MK886 treatment, control all cells Ki67 positive (FIG. 7 Panel E)) | viability of GBM cells [4] | Nestin protein among Ptch1-deficient GNPs [5]
CC(C)c1ccc2c(c1)c(SC(C)(C)C)c(CC(C)(C)C(=O)[O-])n2Cc1ccc(Cl)cc1.[Na+] [MK886, 1-[(4-Chlorophenyl)methyl]-3-[(1,1-dimethylethyl)thio]-α,α-dimethyl-5-(1-methylethyl)-1H-Indole-2-propanoic acid] | markedly inhibited | dramatically inhibited | prevented the proliferation | over 30% | 30 | dramatically reduced; also recorded: almost no Nestin is present | decreased dramatically | around 30% | effectively reduce the viability | 
CC(C)(O)c1ccccc1CC[C@@H](SCC1(CC(=O)O)CC1)c1cccc(/C=C/c2ccc3ccc(Cl)cc3n2)c1 [Montelukast, (R,E)-2-(1-((1-(3-(2-(7-chloroquinolin-2-yl)vinyl)phenyl)-3-(2-(2-hydroxypropan-2-yl)phenyl)propylthio)methyl)cyclopropyl)acetic acid] |  |  |  |  |  |  |  |  | effectively reduce the viability | 
leukotriene |  |  |  |  |  |  |  |  |  | high level of Nestin protein was detected
